biological target: Tyrosine-protein kinase SYK (Homo sapiens) (UniProt P43405); experiment: Inhibition of human Gst-tagged Syk expressed in sf9 cells

Row | IC50 [µM] | Structure (SMILES)
1 | 6.15 | COc1ccc(Nc2nc(N3CCC(C(=O)Nc4ccc(C(=O)O)cc4)C3)nc3scnc23)nc1OC (stereo not drawn)
2 | 0.071 | COc1ccc(Nc2nc(N3CCCC(C(=O)Nc4ccc(C(=O)O)c(O)c4)C3)nc3scnc23)cc1OC (stereo not drawn)
3 | 0.071 | CNC(=O)c1ccc(NC(=O)c2cccc(-c3nc(Nc4ccc(OC)c(OC)c4)c4ncsc4n3)c2)cc1
